Data taken from patent US6723695B1, “CTL epitopes from EBV” (priority 1997, dated 2004).
Entries after “also recorded” stand apart in the source; their conditions may differ. Read-outs that look alike come from different tables or passages of the source.

B1: gp350: highly purified EBV structural glycoprotein gp350, subunit preparation (recombinant and affinity purified) (protein, UniProt P03200 1-907, looked up)
Envelope glycoprotein GP350: MEAALLVCQYTIQSLIHLTGEDPGFFNVEIPEFPFYPTCNVCTADVNVTINFDVGGKKHQLDLDFGQLTPHTKAVYQPRGAFGGSENATNLFLLELLGAGELALTMRSKKLPINVTTGEEQQVSLESVDVYFQDVFGTMWCHHAEMQNPVYLIPETVPYIKWDNCNSTNITAVVRAQGLDVTLPLSLPTSAQDSNFSVKTEMLGNEIDIECIMEDGEISQVLPGDNKFNITCSGYESHVPSGGILTSTSPVATPIPGTGYAYSLRLTPRPVSRFLGNNSILYVFYSGNGPKASGGDYCIQSNIVFSDEIPASQDMPTNTTDITYVGDNATYSVPMVTSEDANSPNVTVTAFWAWPNNTETDFKCKWTLTSGTPSGCENISGAFASNRTFDITVSGLGTAPKTLIITRTATNATTTTHKVIFSKAPESTTTSPTLNTTGFADPNTTTGLPSSTHVPTNLTAPASTGPTVSTADVTSPTPAGTTSGASPVTPSPSPWDNGTESKAPDMTSSTSPVTTPTPNATSPTPAVTTPTPNATSPTPAVTTPTPNATSPTLGKTSPTSAVTTPTPNATSPTLGKTSPTSAVTTPTPNATSPTLGKTSPTSAVTTPTPNATGPTVGETSPQANATNHTLGGTSPTPVVTSQPKNATSAVTTGQHNITSSSTSSMSLRPSSNPETLSPSTSDNSTSHMPLLTSAHPTGGENITQVTPASISTHHVSTSSPAPRPGTTSQASGPGNSSTSTKPGEVNVTKGTPPQNATSPQAPSGQKTAVPTVTSTGGKANSTTGGKHTTGHGARTSTEPTTDYGGDSTTPRPRYNATTYLPPSTSSKLRPRWTFTSPPVTTAQATVPVPPTSQPRFSNLSMLVLQWASLAVLTLLLLLVMADCAFRRNLSTSHTYTTPPYDDAETYV

What was measured:
CTL clone SB7 = assay: LMP1-specific CTL clone SB7, peptide recognition / 51Cr-release assay; assay type: cell-based, human; details: donor; for recognition of peptide by CTL clone SB7: effector:target 4:1
HLA A2 on T2 cells = target: T1, HLA A2 on T2 cells (Homo sapiens, UniProt P04439, D140Y/D185E/D98H/E176V/E277Q/G131W/G231S/I119V/I121R/I166T/I218V/L300P/L318F/N151K/N90K/P208A/P217A/Q86G/Q94H/R138H/R169H/T345S); assay: MHC stabilisation assay on T2 cells (HLA A2 expression by FACS); assay type: cell-based; details: peptide 200 μg/ml, 26° C. 14-16h then 37° C. 2-3h
T1 construct: using HLA A2-positive T2 cells; endogenous in cells; host or cells: T2 (174xCEM.T2), TAP-negative B x T hybrid cell line
Description: FIG. 1:MHC stablization analysis on T2 cells using potential HLA A2 binding peptides within LMP1. T2 cells were initially incubated with 200 μl of each of the peptides (200 μg/ml) for 14-16h at 26° C. followed by incubation at 37° C. for 2-3h. HLA A2 expression on these cells was analysed by FACS using the BB7.2 antibody. The dotted line indicates the background mean fluorescence intensity for HIA A2 on T2 cells without any peptide. The LMP1 peptides showing significant stablization of HLA A2 molecules on T2 cells are indicated by arrows.
FIG. 6:Effect of variant LMP1 peptides on the HLA A2 binding (panel A) and CTL recognition (panel B). For HLA A2 binding analysis on T2 cells were initially incubated with 200 μl of each of the peptides (200 μg/ml) for 14-16h at 26° C. followed by incubation at 37° C. for 2-3h. HLA A2 expression on these cells was analysed by FACS using BB7.2 antibody (panel A). The dotted line indicates the background mean fluorescence intensity for HLA A2 on T2 cells without any peptide. […] Results are expressed as percent specific lysis. […]
FIG. 8:MHC stabilization analysis on T2 cells using potential HLA A2 binding peptides within gp85 (panel A) and gp350 (panel B). […] HLA A2 expression on these cells was analysed by FACS using the BB7.2 antibody. The dotted line indicates the background mean fluorescence intensity for HLA A2 on T2 cells without any peptide. […]

[1] = tested on: peptide-sensitized HLA-matched PHA blasts; assay type: cell-based, human
[2] = tested on: gp350- and gp85-specific CTL response; details: mouse, in vivo, sc
[3] = tested on: peptide-sensitized autologous PHA blasts
[4] = tested on: peptide-sensitized autologous PHA blasts; assay: Polyclonal CTLs stimulated with LMP1 peptides, 51Cr-release assay; assay type: cell-based, human; details: HLA A2-positive donor; effector:target 20:1; targets 1 μg/ml peptide
EBV-positive lymphomas = details: cited from earlier work

Row | Molecule | ex vivo CTL recognition of peptide-sensitized targets [1] | CTL response in splenocytes [2] | lysis of targets by CTLs activated from splenocytes of immunized mice [2] | reactivity of polyclonal CTL effectors against peptide-sensitized PHA blasts [3] | also measured
1 | YLLEILWRL (Epstein Barr Virus) |  |  |  |  | recognition of peptide by CTL clone SB7 (CTL clone SB7): efficiently recognized; expression of HLA A2 on T2 cells (HLA A2 on T2 cells): significantly increased
2 | SLVIVTTFV | strong reactivity | induced strong CTL response | variable in vitro CTL lysis | strong reactivity | 
3 | LMIIPLINV | recognised |  |  | recognized | 
4 | YFLEILWGL |  |  |  |  | recognition of peptide by CTL clone SB7 (CTL clone SB7): no CTL activity; expression of HLA A2 on T2 cells (HLA A2 on T2 cells): significantly increased
5 | VLQWASLAV | strong reactivity; also recorded: recognised | induced strong CTL response | variable in vitro CTL lysis | strong reactivity | 
6 | YLQQNWWTL (Epstein Barr Virus) [LMP1 residues 159-167] |  |  |  |  | activation of polyclonal CTLs (specific lysis) [4]: significant activation of polyclonal CTLs; also recorded: weaker response; ex vivo CTL recognition of peptide-sensitized targets ([1]; all three IM patients, peptide 1 μg/ml): clear recognition; isolation of peptide-specific CTL clones (CTL clone SB7): No CTL clones specific
7 | TLFIGSHVV |  | induced strong CTL response | consistently showed strong lysis | recognized | ex vivo CTL response during acute infection [1]: not detectable
8 | B1 |  |  |  |  | tumor formation / tumor outgrowth (EBV-positive lymphomas; cotton-top tamarins): inhibited tumor formation; serum neutralizing antibodies (EBV-positive lymphomas; subcutaneously with adjuvants (muramyl dipeptide or ISCOMs)): induced high levels of serum neutralizing antibodies
